{"source": "patent US9504676B2", "about": "“Molecules inhibiting a metabolic pathway involving the Syk protein tyrosine kinase and method for identifying said molecules” (CENTRE NATIONAL DE LA RECHERCHE SCIENTIFIQUE, priority 2008, dated 2016)", "key": {"PLC-γ1 and PLC-γ2": {"system": "PLC-γ1 and PLC-γ2", "test": "Phosphorylation of PLC-γ1 and PLC-γ2 in mast cells", "format": "cell-based", "source_text": "To examine the functional similarities with G4G11, the inventors explored the biological effects of C-13 on mast cell activation. […] Similarly to the intrabody G4G11, C-13 inhibited the phosphorylation and FcεRI-induced kinase activity of Btk (FIG. 2A) and the phosphorylation of PLC-γ1 and PLC-γ2, the two PLC-γ isoforms expressed in mast cells (FIGS. 2A, C). PTK Lyn phosphorylates both Syk and Btk giving rise to the complete activation thereof and the subsequent phosphorylation of PLC-γ^18.\n(§1) • 1) Chemical products and antibodies. A chemical bank of 3000 molecules (a varied subset) was acquired from ChemBridge, Inc. (San Diego, Calif.). Stocks of solutions of small molecules were prepared at a rate of 10 mM in DMSO (dimethylsulphoxide), except for C-13 (methyl 2-{5-[(3-benzyl-4-oxo-2-thioxo-1,3-thiazolidin-5-ylidene)methyl]-2-furyl}benzoate, ChemBridge ID No. 6197026) prepared in DMF (dimethylformamide). […] The binding of G4G11 with Syk was assessed by adding the 9E10 monoclonal antibody conjugated with HRP detecting the amino acid sequence EQKLISEEDLN of human c-myc protein located at the C-terminal end of the scFv fragment. To generate Syk mutants, targeted mutagenesis was used on GST:Syk 6-242 protein and the binding of G4G11 with the mutants was assessed in the presence of 5 μM of C-13. • 3) Cells, culture conditions and functional tests. […]"}, "BALB/c mice": {"system": "BALB/c mice", "test": "Antibody production after immunisation with TNP-KLH", "format": "in vivo", "conditions": "oral administration of 150 mg/kg, day 12"}, "RBL-2H3 cells": {"system": "RBL-2H3 cells", "test": "FACS analysis of IgE-dependent calcium flow", "format": "cell-based, rat", "conditions": "mast cells", "description": "FIG. 3. C-13 inhibits FcεRI-dependent calcium release and degranulation. A. FACS analysis of IgE-dependent calcium flow in RBL-2H3 cells. B. Release of β-hexosaminidase in RBL-2H3 cells sensitised with IgE/DNP. C. Release of β-hexosamlnidase and, D. titration of TNF-α in BMMCs cells sensitised with IgE/DNP; C-13: 3 μM. E. FACS analysis of FCεRI surface expression in RBL-2H3 cells. (0=0.25% DMF). Significant inhibition with C-13 versus DMF: **P<0.01 and *P<0.05.\nBinding of Btk and Vav with SLP-76 is critical for regulating PLC-γ activity on the membrane, calcium mobilisation and granule exocytosis^27, 28.\nas §1, with “Calif.).” for “Calif.). Stocks of solutions of small molecules were prepared at a rate of 10 mM in DMSO (dimethylsulphoxide), except for C-13 (methyl 2-{5-[(3-benzyl-4-oxo-2-thioxo-1,3-thiazolidin-5-ylidene)methyl]-2-furyl}benzoate, ChemBridge ID No. 6197026) prepared in DMF (dimethylformamide).”"}}}
{"smiles": "COC(=O)c1ccccc1-c1ccc(/C=C2/SC(=S)N(Cc3ccccc3)C2=O)o1", "note": "[Molecule C-13, methyl 2-{5-[(3-benzyl-4-oxo-2-thioxo-1,3-thiazolidin-5-ylidene)methyl]-2-furyl}benzoate]", "values": [{"measurement": "phosphorylation of PLC-γ1 and PLC-γ2", "setting": "PLC-γ1 and PLC-γ2", "result": "inhibited"}, {"measurement": "antibody responses of mice immunised with a thymus-dependent antigen", "setting": "BALB/c mice", "result": "not affected"}, {"measurement": "calcium flow in response to FcεRI binding", "setting": "RBL-2H3 cells", "result": "reduced calcium flow range"}]}
